In general, Kd refers to a measure of binding affinity in units of concentration. A lower Kd goes with a tighter complex.

This passage reports Kd results from paper PMC3815476 (Biochemistry, 2013).

The target in the test is Shp (Streptococcus pyogenes, UniProt Q06A48, M66A). As to the kind of experiment: biochemical.

Take `c1c[nH]cn1` [imidazole]: the Kd was 210 ± 11 µM.
